pEC50: −log10 of the molar value.
Tests used:
[1] = system: CB2; details: read-out: CB2 functional activity EC50; GTPγ[35S] assay; antagonist series; cited from earlier work
[2] = target: CB1 (Homo sapiens, UniProt P21554); details: GTPγ[35S] assay; antagonist series; cited from earlier work
[3] = target: CB2 receptor (Mus musculus, UniProt P47936); assay: visualization of CB2 receptor binding by CD4+ T cells, confocal microscopy; type: cell-based; details: 5 µM, on ice for 30 minutes, T cells from peripheral lymph nodes of BALB/C mice
Sequence of CB2 receptor (P47936 whole entry): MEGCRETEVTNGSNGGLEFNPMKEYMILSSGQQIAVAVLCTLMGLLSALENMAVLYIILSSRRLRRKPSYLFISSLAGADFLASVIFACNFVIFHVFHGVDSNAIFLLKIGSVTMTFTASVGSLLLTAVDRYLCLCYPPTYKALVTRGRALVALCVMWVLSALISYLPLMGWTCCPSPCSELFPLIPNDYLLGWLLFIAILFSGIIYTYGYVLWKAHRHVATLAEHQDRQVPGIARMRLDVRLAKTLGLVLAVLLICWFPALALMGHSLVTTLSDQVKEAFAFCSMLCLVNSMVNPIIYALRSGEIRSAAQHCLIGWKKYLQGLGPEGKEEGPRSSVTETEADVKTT

Sequence of CB1 (P21554 whole entry, species assumed): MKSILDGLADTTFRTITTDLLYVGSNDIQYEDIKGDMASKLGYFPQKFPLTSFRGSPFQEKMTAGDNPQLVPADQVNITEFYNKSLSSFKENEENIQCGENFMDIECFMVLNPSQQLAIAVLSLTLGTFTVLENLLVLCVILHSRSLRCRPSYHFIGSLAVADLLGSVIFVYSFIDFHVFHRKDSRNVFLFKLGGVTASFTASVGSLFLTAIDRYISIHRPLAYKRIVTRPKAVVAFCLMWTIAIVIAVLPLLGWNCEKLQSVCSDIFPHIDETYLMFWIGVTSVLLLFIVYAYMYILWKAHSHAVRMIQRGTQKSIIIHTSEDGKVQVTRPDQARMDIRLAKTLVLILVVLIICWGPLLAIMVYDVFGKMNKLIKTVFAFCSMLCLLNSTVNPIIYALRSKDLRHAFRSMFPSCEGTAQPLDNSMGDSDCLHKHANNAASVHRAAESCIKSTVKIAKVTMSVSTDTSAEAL

SMILES | pEC50 [1] | CB1 activity [2] | staining of CD4+ T cells [3]
CCCCCN1C(=O)/C(=N\NC(=O)CN2CCOCC2)c2ccc(OC)cc21 [Compound 5] | 7.88 | did not show any CB1 functional activity | 
CCCCCN1C(=O)/C(=N\NC(=O)CN(C)c2ccc([N+](=O)[O-])c3nonc23)c2ccc(OC)cc21 [Compound 6] |  |  | stained the CD4^+ T cells
